Values quoted from earlier work in US9969730B2, “Stable SNS-595 compositions and methods of preparation” (Sunesis Pharmaceuticals, Inc., priority 2009, dated 2018).

Experiments:
[1] = system: various cancer cell lines
xenografts = settings: in vivo
[2] = system: acute myeloid leukemia and ovarian cancer; settings: human cancer patients

Q: Which “preclinical activity against various cancer cell lines” value [1] does the source give for `CN[C@H]1CN(c2ccc3c(=O)c(C(=O)O)cn(-c4nccs4)c3n2)C[C@@H]1OC` [SNS-595, (+)-1,4-dihydro-7-[(3S,4S)-3-methoxy-4-methylamino-1-pyrrolidinyl]-4-oxo-1-(2-thiazolyl)-1,8-naphthyridine-3-carboxylic acid] here?
A: preclinical activity

Q: What about the “preclinical activity against xenografts” value (xenografts) of the same compound?
A: preclinical activity

Q: What about the “clinical activity in the treatment of acute myeloid leukemia and ovarian cancer” value [2] of the same compound?
A: clinical activity
